Counter-ions that a name gives are not always drawn.

The target in one test is T1, human factor XIa (Homo sapiens, UniProt P03951).
T1 construct: purchased Kordia
The experiment in a line: Measurement of FXIa inhibition (fluorogenic peptide substrate). It counts as biochemical. Conditions: human factor XIa from Kordia, substrate Boc-Glu(OBzl)-Ala-Arg-AMC, 30 min at 22° C.; read-out: IC50 (FXIa inhibition). As for the experimental part: To determine the factor XIa inhibition of the substances according to the invention, a biochemical test system is used which utilizes the reaction of a peptidic factor XIa substrate to determine the enzymatic activity of human factor XIa. Here, factor XIa cleaves from the peptic factor XIa substrate the C-terminal aminomethylcoumarin (AMC), the fluorescence of which is measured. The determinations are carried out in microtitre plates.
Test substances are dissolved in dimethyl sulphoxide and serially diluted in dimethyl sulphoxide (3000 μM to 0.0078 μM; resulting final concentrations in the test: 50 μM to 0.00013 μM). In each case 1 μl of the diluted substance solutions are placed into the wells of white microtitre plates from Greiner (384 wells). Subsequently, the following are added successively: 20 μl of assay buffer (50 mmol/1 Tris buffer pH 7.4; 100 mmol/1 sodium chloride; 5 mmol/1 calcium chloride; 0.1% bovine serum albumin) and 20 μl of factor XIa from Kordia (0.45 nM in assay buffer). After 15 min of incubation, the enzyme reaction is started by addition of 20 μl of the factor XIa substrate Boc-Glu(OBzl)-Ala-Arg-AMC dissolved in assay buffer (10 μM in assay buffer) from Bachem, the mixture is incubated at room temperature (22° C.) for 30 min and fluorescence is then measured (excitation: 360 nm, emission: 460 nm). The measured emissions of the test batches with test substance are compared to those of control batches without test substance (only dimethyl sulphoxide instead of test substance in dimethyl sulphoxide), and the IC50 values are calculated from the concentration/activity relationships.

A further test concerns human and animal plasma. As to the kind of experiment: Anticoagulatory activity: activated partial thromboplastin time (aPTT) in plasma. It counts as biochemical. Conditions: in vitro in plasma, C.K. Prest kit, 37° C. for 3 minutes; plasma species of Table B not stated. As for the experimental part: The anticoagulatory activity of the test substances is determined in vitro in human and animal plasma (for example mouse, rat, rabbit, pig and dog plasma). To this end, blood is drawn off in a mixing ratio of sodium citrate/blood of 1:9 using a 0.11 molar sodium citrate solution as receiver. Immediately after the blood has been drawn off, it is mixed thoroughly and centrifuged at about 4000 g for 15 minutes. The supernatant is pipetted off.
The activated partial thromboplastin time (aPTT) is determined in the presence of varying concentrations of test substance or the corresponding solvent using a commercial test kit (C.K. Prest from Diagnostica Stago). The test compounds are incubated with the plasma and the PTT reagent (cephalin, kaolin) at 37° C. for 3 minutes. Coagulation is then started by addition of 25 mM aqueous calcium chloride, and the time when coagulation occurs is determined. The concentration of test substance which brings about a 1.5-fold extension of the aPTT is determined.

T1 sequence (P03951 388-625 limits assumed): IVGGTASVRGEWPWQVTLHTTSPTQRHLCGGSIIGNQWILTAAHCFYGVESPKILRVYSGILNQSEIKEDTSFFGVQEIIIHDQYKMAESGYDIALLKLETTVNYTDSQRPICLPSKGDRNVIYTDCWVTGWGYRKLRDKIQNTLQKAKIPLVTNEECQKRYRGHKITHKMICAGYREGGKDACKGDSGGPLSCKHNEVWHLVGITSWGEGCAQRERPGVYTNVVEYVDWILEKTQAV
T1 sequence (P03951 19-387 partner limits assumed): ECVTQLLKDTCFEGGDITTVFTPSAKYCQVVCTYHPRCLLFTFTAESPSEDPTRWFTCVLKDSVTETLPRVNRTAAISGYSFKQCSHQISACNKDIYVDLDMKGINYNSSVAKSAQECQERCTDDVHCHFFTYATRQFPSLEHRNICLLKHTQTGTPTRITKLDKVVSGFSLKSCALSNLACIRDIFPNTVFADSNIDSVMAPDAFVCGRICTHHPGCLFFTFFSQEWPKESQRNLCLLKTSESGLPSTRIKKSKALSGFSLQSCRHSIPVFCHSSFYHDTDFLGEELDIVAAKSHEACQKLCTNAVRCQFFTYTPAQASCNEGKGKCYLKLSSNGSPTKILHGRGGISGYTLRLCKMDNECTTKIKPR

By IC50 is commonly meant the concentration that inhibits the measured activity by half. Consider `CCN(CC)CCNC(=O)c1ccc(-c2ccc(C[C@H](NC(=O)[C@H]3CC[C@H](CN)CC3)C(=O)Nc3ccc(-c4nn[nH]n4)cc3)cc2)c(C(F)(F)F)n1` [Example 1, N-alpha-{[trans-4-(Aminomethyl)cyclohexyl]carbonyl}-4-[6-{[2-(diethylamino)ethyl]carbamoyl}-2-(trifluoromethyl)pyridin-3-yl]-N-[4-(2H-tetrazol-5-yl)phenyl]-L-phenylalaninamide hydrochloride], for which, on human factor XIa, the concentration for half-maximal inhibition (IC50) was 2 nM. The “aPTT (concentration of test substance which brings about a 1.5-fold extension of the aPTT)” value in the test with human and animal plasma stood at 0.1 µmol/L.

`CCN(CC)CCCNC(=O)c1ccc(-c2ccc(C[C@H](NC(=O)[C@H]3CC[C@H](CN)CC3)C(=O)Nc3ccc(-c4nn[nH]n4)cc3)cc2)c(C)n1` [Example 24, N-alpha-{[trans-4-(Aminomethyl)cyclohexyl]carbonyl}-4-(6-{[3-(diethylamino)propyl]-carbamoyl}-2-methylpyridin-3-yl)-N-[4-(2H-tetrazol-5-yl)phenyl]-L-phenylalaninamide hydrochloride]: on human factor XIa, the IC50 turned out to be 6 nM. Further, the “aPTT (concentration of test substance which brings about a 1.5-fold extension of the aPTT)” value with human and animal plasma amounted to 0.17 µmol/L.

With `Cc1nc(C(=O)NC2CCC(O)CC2)ccc1-c1ccc(C[C@H](NC(=O)[C@H]2CC[C@H](CN)CC2)C(=O)Nc2ccc(-c3nn[nH]n3)cc2)cc1` (stereo partly drawn) [Example 22, N-alpha-{[trans-4-(Aminomethyl)cyclohexyl]carbonyl}-4-{6-[(4-hydroxycyclohexyl)carbamoyl]-2-methylpyridin-3-yl}-N-[4-(2H-tetrazol-5-yl)phenyl]-L-phenylalaninamide hydrochloride], the IC50 on human factor XIa was 2.5 nM. The “aPTT (concentration of test substance which brings about a 1.5-fold extension of the aPTT)” value in the test on human and animal plasma stood at 0.16 µmol/L.

Regarding `Cc1nc(C(=O)N[C@@H]2CCNC2=O)ccc1-c1ccc(C[C@H](NC(=O)[C@H]2CC[C@H](CN)CC2)C(=O)Nc2ccc(-c3nn[nH]n3)cc2)cc1` [Example 26, N-alpha-{[trans-4-(Aminomethyl)cyclohexyl]carbonyl}-4-(2-methyl-6-{[(3R)-2-oxopyrrolidin-3-yl]carbamoyl}pyridin-3-yl)-N-[4-(2H-tetrazol-5-yl)phenyl]-L-phenylalaninamide hydrochloride], on human factor XIa, the half-inhibitory concentration (IC50) is 1.3 nM. Besides, the “aPTT (concentration of test substance which brings about a 1.5-fold extension of the aPTT)” value in the test on human and animal plasma was 0.22 µmol/L.

On to `CCN(CC)CCNC(=O)c1ccc(-c2ccc(C[C@H](NC(=O)[C@H]3CC[C@H](CN)CC3)C(=O)Nc3ccc(-c4nn[nH]n4)cc3)cc2)c(C)n1` [Example 3, N-alpha-{[trans-4-(Aminomethyl)cyclohexyl]carbonyl}-4-(6-{[2-(diethylamino)ethyl]carbamoyl}-2-methylpyridin-3-yl)-N-[4-(2H-tetrazol-5-yl)phenyl]-L-phenylalaninamide hydrochloride], for which the IC50 at human factor XIa turned out to be 5.6 nM. Also, the “aPTT (concentration of test substance which brings about a 1.5-fold extension of the aPTT)” value with human and animal plasma is 0.16 µmol/L.

Take `Cc1cc(C(=O)NC2CCNCC2)ncc1-c1ccc(C[C@H](NC(=O)[C@H]2CC[C@H](CN)CC2)C(=O)Nc2ccc(-c3nnn[nH]3)cc2)cc1` [Example 5, N-alpha-{[trans-4-(Aminomethyl)cyclohexyl]carbonyl}-4-[4-methyl-6-(piperidin-4-ylcarbamoyl)pyridin-3-yl]-N-[4-(1H-tetrazol-5-yl)phenyl]-L-phenylalaninamide hydrochloride]: the IC50 on human factor XIa was 1.9 nM. In addition, in the test on human and animal plasma, the “aPTT (concentration of test substance which brings about a 1.5-fold extension of the aPTT)” value is 0.04 µmol/L.

In the case of `Cc1cc(C(=O)N[C@@H]2CCCNC2=O)ncc1-c1ccc(C[C@H](NC(=O)[C@H]2CC[C@H](CN)CC2)C(=O)Nc2ccc3[nH]c(=O)[nH]c3c2)cc1` [Example 28, N-alpha-{[trans-4-(Aminomethyl)cyclohexyl]carbonyl}-4-(4-methyl-6-{[(3R)-2-oxopiperidin-3-yl]carbamoyl}pyridin-3-yl)-N-(2-oxo-2,3-dihydro-1H-benzimidazol-5-yl)-L-phenylalaninamide hydrochloride], the IC50 on human factor XIa amounted to 20 nM. In addition, the “aPTT (concentration of test substance which brings about a 1.5-fold extension of the aPTT)” value in the test with human and animal plasma was found to be 0.39 µmol/L.

Turning to `Cc1cc(C(=O)N[C@H]2CC[C@H](N3CCOCC3)CC2)ncc1-c1ccc(C[C@H](NC(=O)[C@H]2CC[C@H](CN)CC2)C(=O)Nc2ccc(-c3nnn[nH]3)cc2)cc1` [Example 13, N-alpha-{[trans-4-(Aminomethyl)cyclohexyl]carbonyl}-4-(4-methyl-6-{[trans-4-(morpholin-4-yl)cyclohexyl]carbamoyl}pyridin-3-yl)-N-[4-(1H-tetrazol-5-yl)phenyl]-L-phenylalaninamide hydrochloride], the IC50 on human factor XIa is 0.9 nM. Moreover, the “aPTT (concentration of test substance which brings about a 1.5-fold extension of the aPTT)” value in the test with human and animal plasma was found to be 0.08 µmol/L.

On to `Cc1nc(C(=O)NC2CCC(N(C)C)CC2)ccc1-c1ccc(C[C@H](NC(=O)[C@H]2CC[C@H](CN)CC2)C(=O)Nc2ccc3[nH]c(=O)[nH]c3c2)cc1` (stereo partly drawn) [Example 27, N-alpha-{[trans-4-(Aminomethyl)cyclohexyl]carbonyl}-4-(6-{[4-(dimethylamino)cyclohexyl]-carbamoyl}-2-methylpyridin-3-yl)-N-(2-oxo-2,3-dihydro-1H-benzimidazol-5-yl)-L-phenylalaninamide hydrochloride], for which the half-inhibitory concentration (IC50) on human factor XIa is 19 nM. In the test on human and animal plasma, the “aPTT (concentration of test substance which brings about a 1.5-fold extension of the aPTT)” value is 0.22 µmol/L.

As to `Cc1cc(C(=O)N2CCN(C)CC2)ncc1-c1ccc(C[C@H](NC(=O)[C@H]2CC[C@H](CN)CC2)C(=O)Nc2ccc(-c3nnn[nH]3)cc2)cc1` [Example 33, N-alpha-{[trans-4-(Aminomethyl)cyclohexyl]carbonyl}-4-{4-methyl-6-[(4-methylpiperazin-1-yl)carbonyl]pyridin-3-yl}-N-[4-(1H-tetrazol-5-yl)phenyl]-L-phenylalaninamide hydrochloride], the IC50 at human factor XIa is 4.2 nM. For the same molecule, the “aPTT (concentration of test substance which brings about a 1.5-fold extension of the aPTT)” value with human and animal plasma was 0.44 µmol/L.

In the case of `Cc1nc(C(=O)N[C@H]2CCCNC2=O)ccc1-c1ccc(C[C@H](NC(=O)[C@H]2CC[C@H](CN)CC2)C(=O)Nc2ccc(-c3nn[nH]n3)cc2)cc1` [Example 4, N-alpha-{[trans-4-(Aminomethyl)cyclohexyl]carbonyl}-4-(2-methyl-6-{[(3S)-2-oxopiperidin-3-yl]carbamoyl}pyridin-3-yl)-N-[4-(2H-tetrazol-5-yl)phenyl]-L-phenylalaninamide hydrochloride], the half-maximal inhibitory concentration (IC50) on human factor XIa amounted to 1.3 nM. Further, the “aPTT (concentration of test substance which brings about a 1.5-fold extension of the aPTT)” value in the test on human and animal plasma was 0.2 µmol/L.

Consider `Cc1nc(C(=O)NC2CCC(N(C)C)CC2)ccc1-c1ccc(C[C@H](NC(=O)[C@H]2CC[C@H](CN)CC2)C(=O)Nc2ccc(-c3nn[nH]n3)cc2)cc1` (stereo partly drawn) [Example 2, N-alpha-{[trans-4-(Aminomethyl)cyclohexyl]carbonyl}-4-(6-{[4-(dimethylamino)cyclohexyl]-carbamoyl}-2-methylpyridin-3-yl)-N-[4-(2H-tetrazol-5-yl)phenyl]-L-phenylalaninamide hydrochloride], for which the IC50 on human factor XIa worked out at 1.9 nM. Moreover, the “aPTT (concentration of test substance which brings about a 1.5-fold extension of the aPTT)” value in the test with human and animal plasma is 0.08 µmol/L.

`Cc1nc(C(=O)N[C@@H]2CCN(C)C2)ccc1-c1ccc(C[C@H](NC(=O)[C@H]2CC[C@H](CN)CC2)C(=O)Nc2ccc(-c3nn[nH]n3)cc2)cc1` [Example 19, N-alpha-{[trans-4-(Aminomethyl)cyclohexyl]carbonyl}-4-(2-methyl-6-{[(3R)-1-methylpyrrolidin-3-yl]carbamoyl}pyridin-3-yl)-N-[4-(2H-tetrazol-5-yl)phenyl]-L-phenylalaninamide hydrochloride]: on human factor XIa, the half-inhibitory concentration (IC50) amounted to 4.5 nM. The “aPTT (concentration of test substance which brings about a 1.5-fold extension of the aPTT)” value in the test on human and animal plasma worked out at 0.12 µmol/L.

As to `Cc1nc(C(=O)N[C@@H]2CCNC2)ccc1-c1ccc(C[C@H](NC(=O)[C@H]2CC[C@H](CN)CC2)C(=O)Nc2ccc(-c3nn[nH]n3)cc2)cc1` [Example 17, N-alpha-{[trans-4-(Aminomethyl)cyclohexyl]carbonyl}-4-{2-methyl-6-[(3R)-pyrrolidin-3-ylcarbamoyl]pyridin-3-yl}-N-[4-(2H-tetrazol-5-yl)phenyl]-L-phenylalaninamide hydrochloride], at human factor XIa, the IC50 amounted to 5 nM. The “aPTT (concentration of test substance which brings about a 1.5-fold extension of the aPTT)” value with human and animal plasma worked out at 0.12 µmol/L.

The record behind these values is US20160222056A1, “SUBSTITUTED PHENYLALANINE DERIVATIVES” (BAYER PHARMA AKTIENGESELLSCHAFT, priority 2013, published 2016).
